The record followed here is ChEMBL document CHEMBL1158407, “Synthesis of conjugated spermine derivatives with 7-nitrobenzoxadiazole (NBD), rhodamine and bodipy as new fluorescent probes for the polyamine transport system” (2009).

Assay [1] in a line: Cellular uptake in human NAMALWA cells assessed as fluorescence intensity at 1 uM after 2 hrs by FACS analysis relative to control. Type of assay: functional, cell-based. To be noted: NAMALVA.
A short description of assay [2]: Cellular uptake in F14512 co-cultured human NAMALWA cells assessed as decrease in fluorescence at 0.1 uM after 2 hrs by FACS analysis relative to control. To be noted: NAMALVA. Type of assay: functional, cell-based. Also on record: scale not given: the % may be the effect or the level left. A general note: Flow cytometry measures light scatter and fluorescence of single cells or particles in a stream.

Assay [3] deals with CHO-MG. Put plainly: Differential fluorescence intensity index, ratio of cellular uptake in Chinese hamster CHO cells expressing PTS to cellular uptake in PTS deficient […] CHO-MG cells at 1 uM after 2 hrs by microscopy and FACS analysis. Type of assay: functional.

Calls of active or inactive are those of the source. The calls are words filed in the database; no cut-off is given here. Where only a bound is given, the exact number is not on record here.

Turning to `O=[N+]([O-])c1ccc(NCCCNCCCCNCCCNc2ccc([N+](=O)[O-])c3nonc23)c2nonc12`, the Flu intensity in assay [1] is 627. Further, the outcome in assay [2] was inactive. Moreover, the “fold change (FC)” value in assay [3] (Cricetulus griseus) is “inactive”.
Turning to `CCN(CC)c1ccc2c(-c3ccc(S(=O)(=O)NCCCNCCCCNCCCN)cc3S(=O)(=O)[O-])c3ccc(=[N+](CC)CC)cc-3oc2c1`, the Flu intensity in assay [1] was 2.9. In addition, the outcome in assay [2] was inactive.
On to `CCC1=C(C)/C(=C(\c2ccc(NC(=O)CNCCCNCCCCNCCCN)cc2)c2c(C)c(CC)c(C)n2B(F)F)N=C1C`, for which, in assay [1], the Flu intensity is 839. Also, the Activity in assay [2] was found to be 50%. In addition, the “fold change (FC)” value in assay [3] (Cricetulus griseus) was “inactive”.
For the compound `NCCCNCCCCNCCCNc1ccc(N)c2nonc12`, in assay [1], the Flu intensity was determined as 0. The result in assay [2] was inactive.
For the compound `CN(C)S(=O)(=O)c1ccc(NCCCNCCCCNCCCN)c2nonc12`, the Flu intensity in assay [1] is 0. In assay [2], the result was inactive.
Consider `NCCCNCCCCNCCCNc1ccc([N+](=O)[O-])c2nonc12`, for which the Flu intensity in assay [1] stood at 65. Besides, the Activity in assay [2] was more than 70%. Besides, in assay [3], the “fold change (FC)” value was 10.
As to `NCCCNCCCCNCCCNCC(=O)N1CCN(c2ccc([N+](=O)[O-])c3nonc23)CC1`, the Flu intensity in assay [1] is 2.9. Further, the outcome in assay [2] was inactive.
With `CNc1ccc([N+](=O)[O-])c2nonc12`, the Flu intensity in assay [1] turned out to be 0.5. The result in assay [2] was inactive. Besides, the “fold change (FC)” value in assay [3] (Cricetulus griseus) is “inactive”.
`CN(C)S(=O)(=O)c1ccc(N2CCN(C(=O)CNCCCNCCCCNCCCN)CC2)c2nonc12`: the Flu intensity in assay [1] came to 0. Also, the outcome in assay [2] was inactive.
Turning to `CCC1=C(C)/C(=C(\c2ccc(N)cc2)c2c(C)c(CC)c(C)n2B(F)F)N=C1C`, the Flu intensity in assay [1] came to 3180. In addition, in assay [2], the Activity worked out at 50%.
`CCN(CC)c1ccc2c(-c3ccc(NC(=S)NCCCNCCCCNCCCN)cc3C(=O)[O-])c3ccc(=[N+](CC)CC)cc-3oc2c1`: the result in assay [2] was inactive.
With `CCN(CC)c1ccc2c(-c3cccc(NC(=S)NCCCNCCCCNCCCN)c3C(=O)[O-])c3ccc(=[N+](CC)CC)cc-3oc2c1`, the Flu intensity in assay [1] came out at 15. Also, the result in assay [2] was inactive.
In the case of `CN(CCCNCCCCNCCCN)c1ccc([N+](=O)[O-])c2nonc12`, the Flu intensity in assay [1] worked out at 56. Besides, the Activity in assay [2] is more than 70%. Further, in assay [3], the “fold change (FC)” value stood at 10.
For `CCC1=C(C)/C(=C(\c2ccc([N+](=O)[O-])cc2)c2c(C)c(CC)c(C)n2B(F)F)N=C1C`, in assay [1], the Flu intensity stood at 1390. In addition, the Activity in assay [2] came out at 50%.
Turning to `NCCCNCCCCNCCCNC(=S)Nc1ccc(-c2c3ccc(=O)cc-3oc3cc(O)ccc23)c(C(=O)O)c1`, the Flu intensity in assay [1] amounted to 7.9. Also, the outcome in assay [2] was inactive.
For `NCCCCNc1ccc([N+](=O)[O-])c2nonc12`, in assay [3] (Cricetulus griseus), the “fold change (FC)” value was “inactive”.
On to `CCN(CC)c1ccc2c(-c3ccc(S(=O)(=O)[O-])cc3S(=O)(=O)NCCCNCCCCNCCCN)c3ccc(=[N+](CC)CC)cc-3oc2c1`, for which the Flu intensity in assay [1] stood at 1.3. In addition, in assay [2], the outcome was inactive.
For `NCCCNCCCCN(CCCN)C(=S)Nc1ccc(-c2c3ccc(=O)cc-3oc3cc(O)ccc23)c(C(=O)O)c1`, in assay [1], the Flu intensity came out at 8.1. Besides, the outcome in assay [2] was inactive.
For `O=[N+]([O-])c1ccc(N2CCNCC2)c2nonc12`, the Flu intensity in assay [1] is 1.1. Moreover, the outcome in assay [2] was inactive.
